One assay addresses fMet-Leu-Phe receptor (Homo sapiens, UniProt P21462). Kind of assay: FPR ligands, dose response (AID 519). In kind it is functional.
Assay [1] is described as follows: MC4R antagonists, dose response, counter-screen for LGR2 antagonist project, cell-based, plate reader, cherry pick (AID 743444).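 Note: transfected HEK 293 cells stimulated with alpha-MSH peptide; potency of inhibitors of the alpha-MSH evoked signal.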 In kind it is functional. In general terms: The purpose of a counterscreen is to sort out artefacts and off-target activity.
Assay [2] in a line: HEK293 cell cytotoxicity, dose response, cytotoxicity control, plate reader, cherry-picked samples (AID 743446). In kind it is functional, cell-based.
Assay [3] is described as follows: LGR2 antagonists, dose response, cell-based, HEK293, CRE-luciferase reporter, cherry pick, set 2 (AID 743343).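 Note: transfected cells were stimulated with diluted bursicon conditioned medium after compound addition.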 In kind it is functional. A general note: A reporter such as luciferase makes a cellular process visible.
Assay [4] in a line: cells.
Assay [5] is described as follows: A549 cell cytotoxicity, dose response, cytotoxicity control, plate reader, cherry-pick, antagonist series (AID 743412). The assay is classed as functional, cell-based.
The target of assay [6] is T1, Oxysterols receptor LXR-beta (Homo sapiens, UniProt P55055).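 Note: Cell-based luminescence dose-response assay of agonist activity at LXR, run as a confirmatory counterscreen to a daf-12 agonist screen; HEK293 cells with Gal4-LXR fusion and GAL4-driven luciferase reporter; agonist potency from rising luciferase signal of a Gal4-LXR reporter.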
T1 sequence (P55055 whole entry): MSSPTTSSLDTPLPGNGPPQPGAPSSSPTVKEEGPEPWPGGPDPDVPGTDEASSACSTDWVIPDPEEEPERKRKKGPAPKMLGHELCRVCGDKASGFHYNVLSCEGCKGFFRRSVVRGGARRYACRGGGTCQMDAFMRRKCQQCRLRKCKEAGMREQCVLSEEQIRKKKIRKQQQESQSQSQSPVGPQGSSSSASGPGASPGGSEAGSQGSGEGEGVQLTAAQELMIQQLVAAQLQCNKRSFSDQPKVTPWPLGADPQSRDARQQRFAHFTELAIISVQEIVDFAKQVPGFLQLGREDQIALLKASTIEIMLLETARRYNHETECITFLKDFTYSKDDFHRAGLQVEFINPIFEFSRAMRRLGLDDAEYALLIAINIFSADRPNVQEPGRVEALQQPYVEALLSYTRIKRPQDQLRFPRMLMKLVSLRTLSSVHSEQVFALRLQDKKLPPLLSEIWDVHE
The assay is classed as functional, cell-based.

The nature of assay [7]: HepG2 cell cytotoxicity, dose response, cytotoxicity control, plate reader, cherry-pick, antagonist series (AID 743416). In kind it is functional, cell-based.
A further assay concerns the target Major prion protein (Homo sapiens, UniProt P04156). In kind it is functional, cell-based.
A short description of assay [8]: cells. This is another data set of the same source.
Another assay deals with Albumin (Bos taurus, UniProt P02769). Description: Counterscreen for inhibitors of T-cell receptor (TCR)-CD3 interaction: Fluorescence-based biochemical high throughput dose response assay to identify inhibitors of T-cell receptor (TCR)-CD3 interaction using a TAMRA-labeled BSA probe. In kind it is functional.
A short description of assay [9]: cytotoxicity in KRAS-transformed pancreatic duct cells, primary screen, cell-based, fluorescence, HTS (AID 431).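 Note: cell line used: HPDE-C7K.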 The assay is classed as functional. Conditions: Homo sapiens.
In assay [10] the test system is Streptococcus sp. 'group A'. Description: growth inhibition of control SK(-) GAS strain, dose response, counter-screen for streptokinase expression inhibitor project, luminescence, kanamycin, BacTiterGlo, confirmation (AID 1900). In kind it is functional, organism-based.
The next assay concerns the target T2, Aminopeptidase N (Plasmodium falciparum FcB1/Columbia, UniProt O96935).
T2 sequence (O96935 whole entry): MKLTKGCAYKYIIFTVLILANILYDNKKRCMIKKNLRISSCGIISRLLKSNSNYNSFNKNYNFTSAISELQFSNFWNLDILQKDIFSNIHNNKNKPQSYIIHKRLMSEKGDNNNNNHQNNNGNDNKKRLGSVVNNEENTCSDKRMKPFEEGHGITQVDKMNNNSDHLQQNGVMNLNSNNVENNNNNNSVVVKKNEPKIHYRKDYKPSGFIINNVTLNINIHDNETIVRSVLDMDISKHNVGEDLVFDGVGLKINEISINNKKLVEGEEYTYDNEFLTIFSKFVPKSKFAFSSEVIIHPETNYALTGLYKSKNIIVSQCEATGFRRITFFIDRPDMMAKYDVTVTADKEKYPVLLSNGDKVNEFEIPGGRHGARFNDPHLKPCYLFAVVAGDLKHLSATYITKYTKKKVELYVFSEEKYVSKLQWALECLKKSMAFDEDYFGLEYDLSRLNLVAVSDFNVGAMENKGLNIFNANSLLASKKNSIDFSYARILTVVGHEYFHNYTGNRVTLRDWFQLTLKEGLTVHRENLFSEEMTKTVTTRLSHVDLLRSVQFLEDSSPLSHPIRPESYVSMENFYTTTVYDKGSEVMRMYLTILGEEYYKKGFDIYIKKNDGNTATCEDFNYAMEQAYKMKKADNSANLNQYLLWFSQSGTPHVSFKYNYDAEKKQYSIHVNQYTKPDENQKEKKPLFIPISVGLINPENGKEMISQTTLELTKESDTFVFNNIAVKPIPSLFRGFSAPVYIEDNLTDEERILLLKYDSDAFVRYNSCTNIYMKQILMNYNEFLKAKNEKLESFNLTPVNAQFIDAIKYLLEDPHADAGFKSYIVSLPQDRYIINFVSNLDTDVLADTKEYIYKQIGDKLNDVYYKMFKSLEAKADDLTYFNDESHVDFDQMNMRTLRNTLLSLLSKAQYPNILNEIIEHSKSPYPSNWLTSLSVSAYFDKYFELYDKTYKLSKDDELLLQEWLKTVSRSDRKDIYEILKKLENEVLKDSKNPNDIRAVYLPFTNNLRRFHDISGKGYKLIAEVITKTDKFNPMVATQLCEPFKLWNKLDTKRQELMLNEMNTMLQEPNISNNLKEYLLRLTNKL
Kind of assay: P. falciparum M1AAP inhibitors, biochemical, fluorogenic H-Leu-NHMec substrate, 1536-well (AID 1445). Details: species or system Plasmodium falciparum 3D7, 3D7.

The target in a further assay is T3, Streptokinase A (Streptococcus pyogenes serotype M1, UniProt P10520).
T3 sequence (P10520 whole entry): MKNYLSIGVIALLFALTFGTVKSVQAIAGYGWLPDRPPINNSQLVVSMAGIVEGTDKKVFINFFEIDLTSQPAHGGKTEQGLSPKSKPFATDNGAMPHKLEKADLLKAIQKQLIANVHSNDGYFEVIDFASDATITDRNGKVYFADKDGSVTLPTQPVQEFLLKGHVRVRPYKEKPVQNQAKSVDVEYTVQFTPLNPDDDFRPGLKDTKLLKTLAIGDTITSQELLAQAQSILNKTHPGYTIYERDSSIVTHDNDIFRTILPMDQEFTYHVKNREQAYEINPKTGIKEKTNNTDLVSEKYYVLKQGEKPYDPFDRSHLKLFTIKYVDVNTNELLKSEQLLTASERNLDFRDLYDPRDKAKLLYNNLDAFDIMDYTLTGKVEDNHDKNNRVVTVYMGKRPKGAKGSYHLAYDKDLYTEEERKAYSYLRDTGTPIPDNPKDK
Description: S. pyogenes streptokinase expression inhibitors, potency, dose response, plasminogen activation absorbance, OD405 (AID 1914).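 Note: secreted streptokinase activity via plasminogen activation per viability signal from cell pellet.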 In kind it is functional, Streptococcus pyogenes M1 GAS.

Assay [11] can be described thus: cytotoxicity in HPDE-C7 cells, cell-based, fluorescence, HTS (AID 430). As to conditions: Homo sapiens. In kind it is functional.
For the next assay, the system named is Streptococcus. Description: Group A Streptococcus viability loss, dose response, counter-screen for streptokinase expression inhibitor project, luminescence, BacTiterGlo (AID 1915).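 Note: potency for reduction of bacterial viability or growth.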 The assay is classed as functional, organism-based.
The target in a further assay is Cytochrome P450 2C9 (Homo sapiens, UniProt P11712).
Assay [12] in a line: cells. In kind it is functional, cell-based.
Assay [13] has as its target T4, Trace amine-associated receptor 1 (Homo sapiens, UniProt Q96RJ0).
T4 sequence (Q96RJ0 whole entry): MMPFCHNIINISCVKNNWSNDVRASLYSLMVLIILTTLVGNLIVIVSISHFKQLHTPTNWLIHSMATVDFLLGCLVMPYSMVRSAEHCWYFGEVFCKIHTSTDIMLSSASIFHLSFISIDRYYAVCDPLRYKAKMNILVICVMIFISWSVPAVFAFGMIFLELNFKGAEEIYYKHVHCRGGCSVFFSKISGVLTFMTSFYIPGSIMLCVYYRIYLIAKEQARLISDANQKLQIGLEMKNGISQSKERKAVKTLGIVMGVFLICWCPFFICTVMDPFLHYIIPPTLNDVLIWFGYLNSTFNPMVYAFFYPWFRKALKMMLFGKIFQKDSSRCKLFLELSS
Description: Counterscreen for agonists of the human trace amine associated receptor 1 (hTAAR1): Fluorescence-based cell-based high throughput dose response assay to identify hTAAR1 agonist that also desensitize TAAR1 receptor response. In kind it is functional.

A further assay deals with Cytochrome P450 2C19 (Homo sapiens, UniProt P33261). Description: Cytochrome panel assay with activity outcomes. Panel member name: p450-cyp2c19 Compounds with AC50 equal or less than 10 uM are considered active. The assay is classed as functional. As to conditions: read-out: AC50.
The target of assay [14] is T4, Trace amine-associated receptor 1. Description: Fluorescence-based cell-based high throughput dose response assay to identify agonists of the human trace amine associated receptor 1 (TAAR1). The assay is classed as functional.
A short description of assay [15]: cells. The assay is classed as functional, cell-based. This is another data set of the same source.
A short description of assay [16]: A375 melanoma cell viability loss, dose response, counter-screen for MITF inhibitor project, CellTiter-Glo luminescence, dry powder, set 4 (AID 624364).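 Note: A375 melanoma cells are MITF independent so this is a counter screen.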 The assay is classed as functional, cell-based. As to conditions: A-375.
Assay [17] in a line: A375 melanoma cell cytotoxicity, dose response, counter-screen for MITF inhibitor project, CellTiter-Glo luminescence, dry powder, set 2 (AID 624489).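 Note: actives are compounds lowering A375 viability meaning general cytotoxicity.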 The assay is classed as functional, cell-based. Conditions: A-375.
A short description of assay [18]: cytotoxicity toward NIH3T3 fibroblasts, dose response, counter-screen, cell-based, ATP luminescence, mouse fibroblasts (AID 2010).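 Note: cells exposed to compound for about 90 hours before reading.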 The assay is classed as functional.
Assay [19] concerns the target Induced myeloid leukemia cell differentiation protein Mcl-1 (Homo sapiens, UniProt Q07820). The assay is classed as functional.
A short description of assay [20]: inhibitors of intracellular T. cruzi replication, confirmation, NIH3T3 host cells, beta-gal luminescence (AID 2044).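 Note: intracellular parasites grown in NIH/3T3 mouse fibroblasts as host cells; luminescent beta-galactosidase reporter signal from transgenic T. cruzi replicating inside host cells; inhibitors lower the luminescence signal.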 The assay is classed as functional, cell-based.

Molecules are shown by their SMILES. The source made the active and inactive calls.

The record followed here is ChEMBL document CHEMBL1201862, “PubChem BioAssay data set” (2004).

By Ki is commonly meant a measure of affinity in units of concentration, obtained from inhibition or displacement. By AC50 is commonly meant the concentration at which the activity in the assay is half-maximal. As usually defined, the EC50 is the concentration needed to bring the measured effect to its halfway point. Broadly, the IC50 is the concentration at which inhibition is half-maximal.

As to `CCCC(=O)Nc1c2c(nn1-c1ccc(OC)cc1)C[S+]([O-])C2` (stereo not drawn), the Ki at fMet-Leu-Phe receptor is > 66.7 µM (inactive).
Take `COc1ccc(C(=O)Nc2nnc(-c3cccs3)s2)cc1`: the AC50 is 3.17 µM (active) in assay [1]; > 52 µM (inactive) in assay [2]; 5.12 µM (active) in [3]; 44.5 µM (active) in assay [5]; 45.2 µM (active) in assay [7]. For the same compound, the EC50 (in the assay “cells [4]”; in assay [6]) was > 67.5 µM (inactive) throughout.
For `Cc1cc(NC(=O)CSc2nc(CCC3CCCC3)nc3ccccc23)no1`, the figures for the IC50 on Major prion protein and in the assay “cells [8]” were 9.42 µM (active) and > 138 µM (inactive), respectively.
With `O=C(Cc1ccccc1)NNC(=S)NC(=O)c1cccnc1`, on Albumin, the IC50 was > 94.1 µM (inactive).
On to `CCCCCNC(=O)c1ccc2c(=O)[nH]c3c(C(=O)NCC4CCCO4)sc(=S)n3c2c1` (stereo not drawn), for which the EC50 is > 20 µM (not active) in assay [9]; 0.944 µM (active) in assay [10]; 21.1 µM (inconclusive) at Streptokinase A; 17.6 µM (active) in assay [11]; > 150 µM (not active) in the assay on Streptococcus. Also, the IC50 on Aminopeptidase N is 37 µM (active). Moreover, on fMet-Leu-Phe receptor, the Ki was 40.7 µM (inactive).
As to `CCc1nc(SCC(=O)NNC(=O)C(C)C)c2ccccc2n1`, the IC50 is 1.93 µM (active) at Major prion protein and > 138 µM (inactive) in the assay “cells [8]”.
Consider `CC1CN(C(NC(=O)C(C)(C)C)C(Cl)(Cl)Cl)CC(C)O1` (stereo not drawn), for which the AC50 at Cytochrome P450 2C9 was 14.1 µM (inconclusive); at Cytochrome P450 2C19, 8.91 µM (inconclusive). Also, the values for the IC50 (in the assay “cells [12]”; in assay [13]) were > 29.9 µM (inactive) and 21.6 µM (inactive), respectively. Also, the EC50 in assay [14] was 3.82 µM (active); in the assay “cells [15]”, > 29.9 µM (inactive).
Take `O=C(CSC1=Nc2ccc(Cl)cc2S(=O)(=O)N1)NCCc1ccccc1`: the IC50 in the assay “cells [12]” is > 29.9 µM (inactive); in assay [13], 2.41 µM (active). In addition, the EC50 in assay [14] was 0.295 µM (active); in the assay “cells [15]” it was > 29.9 µM (inactive).
For the compound `O=C(NC1=C(c2ccccc2)C(=O)c2ccccc2C1=O)c1ccco1`, the half-maximal activity concentration (AC50) is 21.3 µM (active) in assay [16] and 14.2 µM (active) in [17].
Taken in the same sequence, the figures for `O=C(NC1=C(c2ccccc2)C(=O)c2ccccc2C1=O)c1ccc(Br)cc1` were 45.8 µM (active) and 22.9 µM (active).
As for `CCc1nnc(S)n1/N=C/c1cc(OC)cc([N+](=O)[O-])c1O`, the EC50 was > 60 µM (not active) in [18] and 0.815 µM (active) in assay [20]. Also, the IC50 is > 94.1 µM (inactive) on Albumin and 12.4 µM (active) in assay [19].
